Data reported in patent US20250170104A1, “INHIBITORS OF PSEUDOMONAS AERUGINOSA VIRULENCE FACTOR Lasß” (priority 2022, published 2025).
Converted amounts (≈) assume the structure as drawn.

How the values were obtained:
[1] = target: MMP1 (Homo sapiens (Human), UniProt P03956); assay: Selectivity assay: inhibition of MMPs; type: biochemical; details: read-out: Selectivity IC50 MMP1
Method: (§1) MMPs-1, -2, -3, -7, -8 and -14 along with the SensoLyte 520 Generic MMP Activity Kit*Fluorimetric* were purchased from AnaSpec (Fremont, CA, USA). The assay was performed as described previously (Schönauer E, Kany A M, Haupenthal J, Hüsecken K, Hoppe I J, Voos K, et al. Discovery of a Potent Inhibitor Class with High Selectivity toward Clostridial Collagenases. J Am Chem Soc. 2017 Sep. 13; 139(36):12696-703) using batimastat as a positive control according to the guidelines of the manufacturer.

[2] = target: MMP3 (Homo sapiens (Human), UniProt P08254); assay: Selectivity assay: inhibition of MMPs; type: biochemical
Method: as §1

[3] = target: MMP2 (Homo sapiens (Human), UniProt P08253); assay: Selectivity assay: inhibition of MMPs; type: biochemical
Method: as §1

[4] = tested on: P. aeruginosa PA-14; assay: MIC determination assay / antibacterial activity; type: cell-based; details: Pseudomonas aeruginosa, PA14
Method: Assays regarding the determination of the minimum inhibitory concentration (MIC) were performed as described previously (Elgaher W A M, Fruth M, Groh M, Haupenthal J, Hartmann R W. Expanding the scaffold for bacterial RNA polymerase inhibitors: design, synthesis and structure-activity relationships of ureido-heterocyclic-carboxylic acids. RSC Adv. 2013 Dec. 3; 4(5):2177-94). The experiments were based on the P. aeruginosa strain PA14. For the case that no MIC value could be determined due to activity reasons, percentage (%) inhibition at 100 μM (or lower, depending on the solubility of the compounds) was calculated. The OD600 was measured 0 and 16 h after inhibitor addition in a CLARIOstar Platereader (BMG Labtech, Ortenberg, Germany).

[5] = target: ADAM-17 (TACE) (Homo sapiens (Human), UniProt P78536); assay: ADAM-17 (TACE) inhibitor screening assay; type: biochemical; details: read-out: Selectivity IC50 TACE
Method: The ADAM-17 (TACE) Inhibitor Screening Assay Kit was purchased from Sigma-Aldrich. The assay was performed according to the guidelines of the manufacturer using ilomastat as a positive control. Fluorescence signals were measured in a CLARIOstar plate reader (BMG Labtech).

[6] = target: HDAC8 (Homo sapiens (Human), UniProt Q9BY41); assay: HDAC inhibition; type: biochemical; details: read-out: Selectivity IC50 HDAC8
Method: (§2) HDAC3 and HDAC8 Inhibitor Screening Assay kits were purchased from Sigma-Aldrich. The assay was performed according to the guidelines of the manufacturer using trichostatin as a positive control. Fluorescence signals were measured in a CLARIOstar plate reader (BMG Labtech).

[7] = target: HDAC3 (Homo sapiens (Human), UniProt O15379); assay: HDAC inhibition; type: biochemical; details: read-out: Selectivity IC50 HDAC3
Method: as §2

[8] = Cytotoxicity assay; type: cell-based; details: human
Method: HepG2, HEK293 or A549 cells (2×10^5 cells per well) were seeded in 24-well, flat-bottomed plates. Culturing of cells, incubations, and OD measurements were performed as described previously (Int. J. Cancer 2007, 121, 206-210). Twenty-four hours after seeding the cells, the incubation was started by the addition of test compound in a final DMSO concentration of 1%. The living cell mass was determined after 48 h. At least two independent measurements were performed for each compound.

[9] = target: LasB (Pseudomonas aeruginosa (strain ATCC 15692 / DSM 22644 / CIP 104116 / JCM 14847 / LMG 12228 / 1C / PRS 101 / PAO1), UniProt P14756); assay: In vitro LasB activity assay (fluorogenic substrate); type: biochemical; details: LasB 0.3 nM, substrate 150 μM, mean ± SD
Method: The LasB activity assay was performed as described previously (Nishino N, Powers J C. Pseudomonas aeruginosa elastase. Development of a new substrate, inhibitors, and an affinity ligand. J Biol Chem. 1980 Apr. 25; 255(8):3482-6) using the fluorogenic substrate 2-Aminobenzoyl-L-Alanyl-Glycyl-L-Leucyl-L-Alanyl-para-Nitro-Benzyl-Amide, purchased from Peptides International (Louisville, KY, USA) and vivitide, LLC (Gardner, MA, USA).
Fluorescence intensity was measured for 60 min at 37° C. in black 384-well microtiter plates (Greiner BioOne, Kremsmünster, Austria) using a CLARIOstar microplate reader (BMG Labtech, Ortenberg, Germany) with an excitation wavelength of […] and an emission wavelength of 415±20 nm. The assay was performed in a final volume of 50 μL of assay buffer (50 mM Tris, pH 7.2, 2.5 mM CaCl2), 0.075% Pluronic F-127, 5% DMSO) containing LasB at a final concentration of […] 0.3 nM and the substrate at 150 μM. Before substrate addition, compounds were preincubated with the enzyme at 37° C. for 15 min. Experiments were performed in duplicates and repeated for at least two times. Blank controls without enzyme were performed. After blank subtraction, the slope of samples containing inhibitors (v) was divided by the slope of a simultaneously started uninhibited enzymatic reaction (v0). IC50 values were determined with nonlinear regression using GraphPad Prism 5 (Graph Pad Software, San Diego, CA, USA) and are given as mean values ±standard deviation (SD). The slope factor was constrained to 1.

[10] = tested on: P. aeruginosa PAO1 (strain DSM22644); assay: G. mellonella larvae survival after PAO1 infection; type: in vivo; details: for Final survival percentage of larvae: 3 CFU/Larva, 24 h
Method: Bacteria were grown overnight, diluted to OD600 of 0.025 in 10 ml medium, and grown for approx. 2 hours at 37° C. inside a shaker incubator until the OD600 of 1.8-2 is reached. The culture was then serially diluted in sterile PBS (pH=7.2). Bacterial densities of 3000, 300, 30, and 3 CFU/Larva were selected for injection into groups of 15 larvae. A total volume of 5 μl was injected into each larva via the hindmost left proleg by using a syringe pump and Sterican® needles (0.30×12 mm, 30G×½). In addition, control group without injection for the quality of the larvae and a PBS control to monitor the effect of the injection were included in the experiment. All test groups and control groups were incubated at 37° C. in the dark and monitored every 2 hours from 17 hours post-infection.
In vivo evaluation of compounds 162 and 169. Bacteria were cultured and prepared according to the previous section. Final concentrations of 50 μM, 25 μM, and 12.5 μM in combination with 3 CFU/Larva were injected into groups of 15 larvae. In addition to no injection and PBS controls, one group was infected with 3 CFU/Larva and considered the negative control. All test groups and control groups were incubated at 37° C. in the dark and monitored every 2 hours from 17 hours post-infection.

[11] = in vitro; type: in vitro ADME; details: mouse, s9
Method: For the evaluation of combined phase I and phase II metabolic stability, the compound (1 μM) was incubated with 1 mg/mL pooled liver S9 fraction (Xenotech), 2 mM NADPH, 1 mM UDPGA, 10 mM MgCl2, 5 mM GSH and 0.1 mM PAPS at 37° C. for 0, 5, 15, 30 and 60 min. The metabolic stability of Testosterone (1 μM), verapamil (1 μM) and ketoconazol (1 μM) were determined in parallel to confirm the enzymatic activity of the S9 fraction. The incubation was stopped by precipitation of S9 enzymes with 2 volumes of cold acetonitrile containing internal standard (150 nM Diphenhydramine). Samples were stored on ice for 10 min and precipitated protein was removed by centrifugation (15 min, 4° C., 4,000 rpm). The remaining test compound at different time points was analyzed by LC-MS/MS (TSQ Quantum Access MAX, Thermo Fisher, Dreieich, Germany) and used to determine half-life (t½).

[12] = Kinetic turbidimetric solubility assay; type: physicochemical; details: PBS, aqueous buffer, kinetic from dmso stock
Method: The desired compounds were sequentially diluted in DMSO in a 96-well plate. 1.5 μL of each well were transferred into another 96-well plate and mixed with 148.5 μL of PBS. Plates were shaken for 5 min at 600 rpm at room temperature, and the absorbance at 620 nm was measured. Absorbance values were normalized by blank subtraction and plotted using GraphPad Prism 8.4.2 (GraphPad Software, San Diego, CA, USA). Solubility (S) was determined based on the First X value of AUC function using a threshold of 0.005.

Chain of LasB (P14756 198-498): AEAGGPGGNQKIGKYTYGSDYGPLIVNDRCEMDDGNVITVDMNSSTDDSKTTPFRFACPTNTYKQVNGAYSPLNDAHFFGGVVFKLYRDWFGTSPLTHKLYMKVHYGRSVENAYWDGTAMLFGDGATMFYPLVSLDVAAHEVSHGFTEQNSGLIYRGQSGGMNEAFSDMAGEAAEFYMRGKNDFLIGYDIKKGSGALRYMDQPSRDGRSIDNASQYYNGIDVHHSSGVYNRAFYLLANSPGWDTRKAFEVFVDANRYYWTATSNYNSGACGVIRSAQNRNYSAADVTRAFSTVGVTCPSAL
Chain of MMP3 (P08254 100-477): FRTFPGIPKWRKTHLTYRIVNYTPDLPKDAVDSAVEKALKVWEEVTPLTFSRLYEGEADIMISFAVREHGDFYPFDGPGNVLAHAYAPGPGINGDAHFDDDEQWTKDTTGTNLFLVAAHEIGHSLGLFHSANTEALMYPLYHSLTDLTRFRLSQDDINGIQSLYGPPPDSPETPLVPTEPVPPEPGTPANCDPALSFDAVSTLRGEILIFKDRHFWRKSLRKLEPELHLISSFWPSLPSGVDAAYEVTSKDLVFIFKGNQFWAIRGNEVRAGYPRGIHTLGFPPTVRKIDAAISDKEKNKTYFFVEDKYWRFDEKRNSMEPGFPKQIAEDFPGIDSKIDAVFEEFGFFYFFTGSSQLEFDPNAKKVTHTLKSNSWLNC
Chain of ADAM-17 (TACE) (P78536 whole entry, looked up): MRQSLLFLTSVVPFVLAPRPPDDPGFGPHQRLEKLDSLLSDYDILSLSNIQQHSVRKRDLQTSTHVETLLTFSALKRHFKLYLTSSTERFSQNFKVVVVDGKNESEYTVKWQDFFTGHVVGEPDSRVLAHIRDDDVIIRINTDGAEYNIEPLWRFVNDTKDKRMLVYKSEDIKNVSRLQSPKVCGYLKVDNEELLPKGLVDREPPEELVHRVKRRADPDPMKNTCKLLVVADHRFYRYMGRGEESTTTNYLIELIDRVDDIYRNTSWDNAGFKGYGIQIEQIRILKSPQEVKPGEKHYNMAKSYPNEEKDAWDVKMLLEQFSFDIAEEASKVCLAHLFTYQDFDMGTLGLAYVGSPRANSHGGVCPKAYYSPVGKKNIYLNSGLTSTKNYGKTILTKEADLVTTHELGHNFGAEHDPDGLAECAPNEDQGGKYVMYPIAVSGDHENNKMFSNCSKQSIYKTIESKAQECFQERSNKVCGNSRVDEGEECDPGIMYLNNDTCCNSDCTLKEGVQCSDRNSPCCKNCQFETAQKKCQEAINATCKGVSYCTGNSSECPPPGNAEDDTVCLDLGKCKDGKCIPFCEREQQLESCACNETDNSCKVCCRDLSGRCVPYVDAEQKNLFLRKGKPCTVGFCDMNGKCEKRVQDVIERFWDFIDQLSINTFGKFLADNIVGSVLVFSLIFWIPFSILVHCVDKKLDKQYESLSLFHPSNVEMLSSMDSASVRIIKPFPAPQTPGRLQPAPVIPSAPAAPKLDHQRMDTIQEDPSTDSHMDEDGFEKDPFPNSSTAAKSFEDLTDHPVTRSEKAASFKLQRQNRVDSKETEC
Chain of HDAC3 (O15379 whole entry, looked up): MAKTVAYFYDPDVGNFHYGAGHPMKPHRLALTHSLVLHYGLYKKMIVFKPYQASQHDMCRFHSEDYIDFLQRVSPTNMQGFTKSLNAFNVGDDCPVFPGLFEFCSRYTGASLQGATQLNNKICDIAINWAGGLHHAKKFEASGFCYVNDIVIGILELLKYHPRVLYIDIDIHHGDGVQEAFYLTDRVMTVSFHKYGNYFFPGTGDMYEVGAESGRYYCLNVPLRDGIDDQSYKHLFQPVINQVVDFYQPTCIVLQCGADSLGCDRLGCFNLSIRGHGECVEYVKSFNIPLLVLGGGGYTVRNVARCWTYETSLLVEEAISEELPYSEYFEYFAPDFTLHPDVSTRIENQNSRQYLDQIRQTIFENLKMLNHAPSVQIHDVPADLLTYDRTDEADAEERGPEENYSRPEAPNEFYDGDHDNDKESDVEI
Chain of HDAC3 (Q9Y618 whole entry partner, looked up): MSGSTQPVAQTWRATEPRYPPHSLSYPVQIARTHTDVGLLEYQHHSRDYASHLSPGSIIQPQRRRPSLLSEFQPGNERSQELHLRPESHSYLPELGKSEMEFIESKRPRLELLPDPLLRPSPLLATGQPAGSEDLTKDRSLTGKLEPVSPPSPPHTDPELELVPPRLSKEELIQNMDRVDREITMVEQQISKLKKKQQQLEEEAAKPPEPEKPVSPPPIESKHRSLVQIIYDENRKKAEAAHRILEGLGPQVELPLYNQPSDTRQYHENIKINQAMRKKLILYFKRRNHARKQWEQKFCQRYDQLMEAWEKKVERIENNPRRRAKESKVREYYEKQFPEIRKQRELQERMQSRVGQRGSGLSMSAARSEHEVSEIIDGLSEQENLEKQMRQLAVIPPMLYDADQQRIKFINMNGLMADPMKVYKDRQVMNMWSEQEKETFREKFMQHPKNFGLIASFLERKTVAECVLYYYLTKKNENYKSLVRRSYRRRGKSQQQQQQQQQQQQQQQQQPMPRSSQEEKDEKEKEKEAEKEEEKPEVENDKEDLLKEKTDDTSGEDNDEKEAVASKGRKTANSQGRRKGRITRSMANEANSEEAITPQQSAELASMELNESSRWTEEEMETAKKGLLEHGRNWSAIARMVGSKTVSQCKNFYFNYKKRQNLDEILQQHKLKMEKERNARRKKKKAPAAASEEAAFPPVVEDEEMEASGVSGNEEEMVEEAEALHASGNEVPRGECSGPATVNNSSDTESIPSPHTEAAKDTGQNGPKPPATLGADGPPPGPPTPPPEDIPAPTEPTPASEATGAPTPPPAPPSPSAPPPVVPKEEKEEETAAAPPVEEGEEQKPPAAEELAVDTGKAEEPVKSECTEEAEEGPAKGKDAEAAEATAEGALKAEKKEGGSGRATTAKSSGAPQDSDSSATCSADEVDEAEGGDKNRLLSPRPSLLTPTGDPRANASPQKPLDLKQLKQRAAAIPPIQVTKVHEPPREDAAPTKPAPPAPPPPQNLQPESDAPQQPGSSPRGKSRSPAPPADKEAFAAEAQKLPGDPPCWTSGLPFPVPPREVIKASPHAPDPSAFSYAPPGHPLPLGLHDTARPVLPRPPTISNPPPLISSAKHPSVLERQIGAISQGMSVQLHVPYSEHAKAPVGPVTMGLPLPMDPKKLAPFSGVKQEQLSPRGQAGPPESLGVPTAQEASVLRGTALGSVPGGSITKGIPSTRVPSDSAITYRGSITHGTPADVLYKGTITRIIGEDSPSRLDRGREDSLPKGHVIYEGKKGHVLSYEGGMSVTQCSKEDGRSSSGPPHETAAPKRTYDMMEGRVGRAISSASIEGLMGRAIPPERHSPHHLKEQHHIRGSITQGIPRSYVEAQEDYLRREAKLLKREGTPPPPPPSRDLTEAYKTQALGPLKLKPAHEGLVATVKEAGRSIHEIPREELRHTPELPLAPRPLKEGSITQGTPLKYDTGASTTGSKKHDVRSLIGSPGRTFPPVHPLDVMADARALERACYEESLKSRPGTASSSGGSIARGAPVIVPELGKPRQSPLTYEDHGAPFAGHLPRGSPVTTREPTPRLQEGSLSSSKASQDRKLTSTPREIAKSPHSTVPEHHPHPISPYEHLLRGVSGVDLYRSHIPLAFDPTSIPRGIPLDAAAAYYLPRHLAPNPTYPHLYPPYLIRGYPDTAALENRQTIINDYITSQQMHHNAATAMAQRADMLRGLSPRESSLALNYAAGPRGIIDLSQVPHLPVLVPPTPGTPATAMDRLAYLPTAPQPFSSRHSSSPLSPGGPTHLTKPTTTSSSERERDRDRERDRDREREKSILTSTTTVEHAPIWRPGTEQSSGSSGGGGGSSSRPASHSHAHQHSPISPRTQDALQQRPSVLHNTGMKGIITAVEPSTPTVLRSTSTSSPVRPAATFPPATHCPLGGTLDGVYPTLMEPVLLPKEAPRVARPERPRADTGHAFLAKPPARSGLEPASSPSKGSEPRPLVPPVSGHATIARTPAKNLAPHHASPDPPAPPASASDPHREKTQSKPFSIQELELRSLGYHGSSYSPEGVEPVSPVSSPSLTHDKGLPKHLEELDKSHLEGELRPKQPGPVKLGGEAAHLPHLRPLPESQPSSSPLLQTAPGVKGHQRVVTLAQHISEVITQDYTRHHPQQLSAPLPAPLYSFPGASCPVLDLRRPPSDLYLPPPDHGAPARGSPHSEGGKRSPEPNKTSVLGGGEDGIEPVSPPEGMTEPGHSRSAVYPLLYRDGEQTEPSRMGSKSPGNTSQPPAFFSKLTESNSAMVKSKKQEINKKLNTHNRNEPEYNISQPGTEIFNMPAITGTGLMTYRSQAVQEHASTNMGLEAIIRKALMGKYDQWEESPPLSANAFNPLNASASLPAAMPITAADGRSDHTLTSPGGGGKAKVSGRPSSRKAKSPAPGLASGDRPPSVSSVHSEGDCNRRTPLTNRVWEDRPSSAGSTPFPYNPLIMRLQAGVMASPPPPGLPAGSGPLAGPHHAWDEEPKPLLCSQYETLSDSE
Chain of MMP2 (P08253 110-660): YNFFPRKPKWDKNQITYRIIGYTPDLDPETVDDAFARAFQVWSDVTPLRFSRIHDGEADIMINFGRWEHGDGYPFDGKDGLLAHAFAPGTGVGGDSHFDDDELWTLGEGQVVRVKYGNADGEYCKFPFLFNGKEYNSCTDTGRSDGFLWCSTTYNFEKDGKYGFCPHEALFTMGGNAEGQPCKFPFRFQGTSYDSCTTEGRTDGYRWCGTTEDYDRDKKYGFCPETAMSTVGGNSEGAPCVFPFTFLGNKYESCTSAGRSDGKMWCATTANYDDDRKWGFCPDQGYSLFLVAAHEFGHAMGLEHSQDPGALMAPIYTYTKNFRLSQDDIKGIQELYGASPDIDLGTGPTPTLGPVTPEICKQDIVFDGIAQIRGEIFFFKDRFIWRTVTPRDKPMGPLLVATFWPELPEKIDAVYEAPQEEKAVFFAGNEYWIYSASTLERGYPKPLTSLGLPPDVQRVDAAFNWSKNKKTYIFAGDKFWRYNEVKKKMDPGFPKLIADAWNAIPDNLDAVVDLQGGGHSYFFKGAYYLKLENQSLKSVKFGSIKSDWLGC

CC(C)CC(C(=O)NO)C(=O)Nc1ccc(CN=[N+]=[N-])cc1 (stereo not shown) [Compound Z9, N-[4-(Azidomethyl)phenyl]-2-(hydroxycarbamoyl)-4-methyl-pentanamide]
IC50 [1]: > 100000 nM
IC50 [2]: > 100000 nM
IC50 [3]: > 100000 nM
IC50 [4]: > 100000 nM
IC50 [5]: 1600 ± 200 nM
IC50 [6]: > 100000 nM
IC50 [7]: > 100000 nM
IC50 at 48 h ([8]; A549 cells): > 100000 nM
IC50 at 48 h ([8]; HEK293 cells): > 100000 nM
IC50 at 48 h ([8]; HepG2 cells): > 100000 nM
IC50 [9]: 16.9 ± 0.6 nM

COc1ccc(S(=O)(=O)NCc2cn(Cc3ccc(NC(=O)C(CC(C)C)C(=O)NO)cc3)nn2)cc1 (stereo not shown) [Compound 162, 2-(Hydroxycarbamoyl)-N-[4-[[4-[[(4-methoxyphenyl)sulfonylamino]methyl]triazol-1-yl]methyl]phenyl]-4-methyl-pentanamide]
Final survival percentage of larvae ([10]; 12.5 μM): 58%
Final survival percentage of larvae ([10]; 25 μM): 64%
Final survival percentage of larvae ([10]; 50 μM): 84%
Improvement in survival of larvae compared to negative control ([10]; 50 μM, vs 3 CFU/Larva without treatment): 40%
IC50 [9]: 1.9 ± 0.1 nM

CC(C)CC(C(=O)NO)C(=O)Nc1ccc(Cn2cc(CSc3ccc(Cl)cc3)nn2)cc1 (stereo not shown) [Compound 136, N-[4-[[4-[(4-Chlorophenyl)sulfanylmethyl]triazol-1-yl]methyl]phenyl]-2-(hydroxycarbamoyl)-4-methyl-pentanamide]
half-life at 1 μM [11]: 3.3 ± 0.2 min
solubility at 5 min [12]: < 200 µM
IC50 [9]: 1.4 ± 0.1 nM

CC(C)CC(C(=O)NO)C(=O)Nc1ccc(Cn2cc(CNS(=O)(=O)c3ccc(NC(=O)OC(C)(C)C)cc3)nn2)cc1 (stereo not shown) [Compound 208, tert-butyl N-[4-[[1-[[4-[[2-(hydroxycarbamoyl)-4-methyl-pentanoyl]amino]phenyl]methyl]triazol-4-yl]methylsulfamoyl]phenyl]carbamate]
IC50 [9]: 4.2 ± 0.2 nM

O=C(NO)C(CC1CC1)C(=O)Nc1ccc(Cn2cc(CNS(=O)(=O)c3ccc(I)cc3)nn2)cc1 (stereo not shown) [Compound 183, 2-(Cyclopropylmethyl)-3-(hydroxyamino)-N-[4-[[4-[[(4-iodophenyl)sulfonylamino]methyl]triazol-1-yl]methyl]phenyl]-3-oxo-propanamide]
IC50 [9]: 9.9 ± 0.3 nM

CC(C)CC(C(=O)NO)C(=O)Nc1ccc(Cn2cc(CNS(=O)(=O)c3ccc(Cl)c(Cl)c3)nn2)cc1 (stereo not shown) [Compound 165, N-[4-[[4-[[(3,4-Dichlorophenyl)sulfonylamino]methyl]triazol-1-yl]methyl]phenyl]-2-(hydroxycarbamoyl)-4-methyl-pentanamide]
half-life at 1 μM [11]: 10.7 ± 0.6 min
solubility at 5 min [12]: 117 µM (≈ 66.6 µg/mL)
IC50 [9]: 1.6 ± 0.1 nM

CC(C)CC(C(=O)NO)C(=O)Nc1ccc(Cn2cc(CNS(=O)(=O)Cc3ccc(Cl)cc3)nn2)cc1 (stereo not shown) [Compound 166, N-[4-[[4-[[(4-Chlorophenyl)methylsulfonylamino]methyl]triazol-1-yl]methyl]phenyl]-2-(hydroxycarbamoyl)-4-methyl-pentanamide]
IC50 [9]: 5.2 ± 0.3 nM

CC(C)CC(C(=O)NO)C(=O)Nc1ccc(Cn2cc(CNS(=O)(=O)c3cccc(Cl)c3)nn2)cc1 (stereo not shown) [Compound 164, N-[4-[[4-[[(3-Chlorophenyl)sulfonylamino]methyl]triazol-1-yl]methyl]phenyl]-2-(hydroxycarbamoyl)-4-methyl-pentanamide]
IC50 [9]: 2.4 ± 0.1 nM

CC(C)CC(C(=O)NO)C(=O)Nc1ccc(Cn2cc(C3CSCN3C(=O)c3ccc(F)cc3)nn2)cc1 (stereo not shown) [Hit L4, N-[4-[[4-[3-(4-Fluorobenzoyl)thiazolidin-4-yl]triazol-1-yl]methyl]phenyl]-2-(hydroxycarbamoyl)-4-methyl-pentanamide]
IC50 [9]: 6.6 ± 0.2 nM

CC(C)CC(C(=O)NO)C(=O)Nc1ccc(Cn2cc(CNS(=O)(=O)CC34CCC(CC3=O)C4(C)C)nn2)cc1 (stereo not shown) [Hit L2, N-[4-[[4-[[(7,7-Dimethyl-2-oxo-norbornan-1-yl)methylsulfonylamino]methyl]triazol-1-yl]methyl]phenyl]-2-(hydroxycarbamoyl)-4-methyl-pentanamide]
IC50 [9]: 5.3 ± 0.1 nM

CC(C)CC(C(=O)NO)C(=O)Nc1ccc(Cn2cc(CN(C)S(=O)(=O)c3ccc(I)cc3)nn2)cc1 (stereo not shown) [Compound 131, 2-(Hydroxycarbamoyl)-N-[4-[[4-[[(4-iodophenyl)sulfonyl-methyl-amino]methyl]triazol-1-yl]methyl]phenyl]-4-methyl-pentanamide]
half-life at 1 μM [11]: 37.5 ± 2.5 min
solubility at 5 min [12]: < 200 µM
IC50 [9]: 2.3 ± 0.1 nM
